Read-outs that look alike come from different tables or passages of the source. Bounds are passed on as bounds.

The results in this text go back to patent US20250145633A1, “SUBSTITUTED FURANOPYRIMIDINE COMPOUNDS AS PDE1 INHIBITORS” (Dart NeuroScience, LLC, priority 2017, published 2025).

The experiment addresses human PDE1B enzyme (Homo sapiens (Human), UniProt Q01064). Briefly: IMAP TR-FRET PDE1B enzymatic assay. It is filed as biochemical. In a few lines:
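Full-length GST-tagged human PDE1B (250 pg/well) in IMAP BSA buffer with 10 U/ml calmodulin and 2.5 mM CaCl2; compound pre-incubated 5 min at room temperature, then 200 nM (final) FAM-cAMP for 30 min. IMAP binding reagent/Tb added, 1 h; TR-FRET 520/490 ratio read. IC50 from sigmoidal dose-response fit.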
(In general: TR-FRET usually uses a lanthanide donor and a delayed reading to cut background.)

Setting [1] is: negative log of half-maximal molar inhibitory concentration, 200 nM FAM-cAMP, values given as bins, read-out: PDE1b (pIC50) (converted).
Where [2] appears, read: negative log of half-maximal molar inhibitory concentration, 200 nM FAM-cAMP, values given as bins.

Turning to `Cc1oc2ncnc(NC3(C)CC3)c2c1C(=O)NCCC1CCCCC1` [Example 225, N-(2-Cyclohexylethyl)-6-methyl-4-[(1-methylcyclopropyl)amino]furo[2,3-d]pyrimidine-5-carboxamide], under setting [1], the IC50 is 10 to 100 nM.
As for `Cc1oc2ncnc(NC3(C)CC3)c2c1C(=O)NC1CCc2ccccc21` (stereo not drawn) [Example 230, N-(2,3-Dihydro-1H-inden-1-yl)-6-methyl-4-[(1-methylcyclopropyl)amino]furo[2,3-d]pyrimidine-5-carboxamide], the IC50 under setting [1] was 10 to 100 nM.
In the case of `Cc1oc2ncnc(NC3(C)CC3)c2c1C(=O)N1CCc2ccccc2C1` [Example 233, 6-Methyl-N-(1-methylcyclopropyl)-5-(1,2,3,4-tetrahydroisoquinoline-2-carbonyl)furo[2,3-d]pyrimidin-4-amine], the IC50 under setting [1] was 10 to 100 nM.
For the molecule `Cc1ccc(CCNC(=O)c2c(C)oc3ncnc(NC4(C)CC4)c23)cc1` [Example 235, 6-Methyl-4-[(1-methylcyclopropyl)amino]-N-[2-(4-methylphenyl)ethyl]furo[2,3-d]pyrimidine-5-carboxamide], the IC50 under setting [1] was 10 to 100 nM.
With `Cc1ccccc1CCNC(=O)c1c(C)oc2ncnc(NC3(C)CC3)c12` [Example 236, 6-Methyl-4-[(1-methylcyclopropyl)amino]-N-[2-(2-methylphenyl)ethyl]furo[2,3-d]pyrimidine-5-carboxamide], the IC50 under setting [1] was 10 to 100 nM.
Take `Cc1ccc(CNC(=O)c2c(C)oc3ncnc(NC4(C)CC4)c23)cc1C` [Example 237, N-[(3,4-Dimethylphenyl)methyl]-6-methyl-4-[(1-methylcyclopropyl)amino]furo[2,3-d]pyrimidine-5-carboxamide]: the “PDE1b (pIC50)” value under setting [2] was greater than 8.
With `Cc1cccc(CNC(=O)c2c(C)oc3ncnc(NC4(C)CC4)c23)c1C` [Example 238, N-[(2,3-Dimethylphenyl)methyl]-6-methyl-4-[(1-methylcyclopropyl)amino]furo[2,3-d]pyrimidine-5-carboxamide], under setting [2], the “PDE1b (pIC50)” value was greater than 8.
`Cc1oc2ncnc(NC3(C)CC3)c2c1C(=O)NC(C)(C)c1ccccc1` [Example 239, 6-Methyl-4-[(1-methylcyclopropyl)amino]-N-(2-phenylpropan-2-yl)furo[2,3-d]pyrimidine-5-carboxamide]: under setting [1], the IC50 was 10 to 100 nM.
Regarding `COc1ccc(NC(=O)c2c(C)oc3ncnc(NC4(C)CC4)c23)c(C)c1` [Example 244, N-(4-Methoxy-2-methylphenyl)-6-methyl-4-[(1-methylcyclopropyl)amino]furo[2,3-d]pyrimidine-5-carboxamide], the IC50 under setting [1] was 10 to 100 nM.
On to `COc1cccc(CNC(=O)c2c(C)oc3ncnc(NC4(C)CC4)c23)c1` [Example 246, N-[(3-Methoxyphenyl)methyl]-6-methyl-4-[(1-methylcyclopropyl)amino]furo[2,3-d]pyrimidine-5-carboxamide], for which, under setting [1], the IC50 is 10 to 100 nM.
Take `Cc1oc2ncnc(NC3(C)CC3)c2c1C(=O)N(C)Cc1ccc(F)cc1` [Example 248, N-[(4-Fluorophenyl)methyl]-N,6-dimethyl-4-[(1-methylcyclopropyl)amino]furo[2,3-d]pyrimidine-5-carboxamide]: under setting [1], the IC50 is 10 to 100 nM.
For `Cc1oc2ncnc(NC3(C)CC3)c2c1C(=O)N(C)Cc1ccccc1F` [Example 249, N-[(2-Fluorophenyl)methyl]-N,6-dimethyl-4-[(1-methylcyclopropyl)amino]furo[2,3-d]pyrimidine-5-carboxamide], the IC50 under setting [1] is 10 to 100 nM.
Consider `Cc1oc2ncnc(NC3(C)CC3)c2c1C(=O)N(C)Cc1cccc(F)c1` [Example 250, N-[(3-Fluorophenyl)methyl]-N,6-dimethyl-4-[(1-methylcyclopropyl)amino]furo[2,3-d]pyrimidine-5-carboxamide], for which the IC50 under setting [1] is 10 to 100 nM.
As for `CCc1cc(CN(C)C(=O)c2c(C)oc3ncnc(NC4(C)CC4)c23)on1` [Example 251, N-[(3-Ethyl-1,2-oxazol-5-yl)methyl]-N,6-dimethyl-4-[(1-methylcyclopropyl)amino]furo[2,3-d]pyrimidine-5-carboxamide], the IC50 under setting [1] is 10 to 100 nM.
Regarding `COc1cc(NC(=O)c2c(C)oc3ncnc(NC4(C)CC4)c23)ccc1F` [Example 253, N-(4-Fluoro-3-methoxyphenyl)-6-methyl-4-[(1-methylcyclopropyl)amino]furo[2,3-d]pyrimidine-5-carboxamide], under setting [1], the IC50 is 10 to 100 nM.
As to `Cc1oc2ncnc(NC3(C)CC3)c2c1C(=O)NCc1ccccc1Cl` [Example 254, N-[(2-Chlorophenyl)methyl]-6-methyl-4-[(1-methylcyclopropyl)amino]furo[2,3-d]pyrimidine-5-carboxamide], the IC50 under setting [1] is 10 to 100 nM.
On to `Cc1ccc(Cl)c(NC(=O)c2c(C)oc3ncnc(NC4(C)CC4)c23)c1` [Example 256, N-(2-Chloro-5-methylphenyl)-6-methyl-4-[(1-methylcyclopropyl)amino]furo[2,3-d]pyrimidine-5-carboxamide], for which the IC50 under setting [1] was 10 to 100 nM.
On the same count and under the same terms, then `COCCN1CCN(C(=O)c2c(C)oc3ncnc(NC4(C)CC4)c23)CC1` [Example 260, 5-[4-(2-Methoxyethyl)piperazine-1-carbonyl]-6-methyl-N-(1-methylcyclopropyl)furo[2,3-d]pyrimidin-4-amine], with 100 to 1000 nM; and `Cc1oc2ncnc(NC3(C)CC3)c2c1C(=O)Nc1ccc2c(cnn2C)c1` [Example 262, 6-Methyl-N-(1-methyl-1H-indazol-5-yl)-4-[(1-methylcyclopropyl)amino]furo[2,3-d]pyrimidine-5-carboxamide], with 10 to 100 nM; and `Cc1oc2ncnc(NC3(C)CC3)c2c1C(=O)Nc1ccc2scnc2c1` [Example 263, N-(1,3-Benzothiazol-5-yl)-6-methyl-4-[(1-methylcyclopropyl)amino]furo[2,3-d]pyrimidine-5-carboxamide], with 10 to 100 nM.
As for `Cc1oc2ncnc(NC3(C)CC3)c2c1C(=O)N(C)Cc1cc(C2CC2)[nH]n1` [Example 265, N-[(5-Cyclopropyl-1H-pyrazol-3-yl)methyl]-N,6-dimethyl-4-[(1-methylcyclopropyl)amino]furo[2,3-d]pyrimidine-5-carboxamide], the IC50 under setting [1] is 10 to 100 nM.
With `Cc1oc2ncnc(NC3(C)CC3)c2c1C(=O)NCc1ccc(OC(F)F)cc1` [Example 267, N-{[4-(Difluoromethoxy)phenyl]methyl}-6-methyl-4-[(1-methylcyclopropyl)amino]furo[2,3-d]pyrimidine-5-carboxamide], the “PDE1b (pIC50)” value under setting [2] is reported as greater than 8.
On to `Cc1oc2ncnc(NC3(C)CC3)c2c1C(=O)N1CCn2ccnc2C1` [Example 269, 5-{5H,6H,7H,8H-Imidazo[1,2-a]pyrazine-7-carbonyl}-6-methyl-N-(1-methylcyclopropyl)furo[2,3-d]pyrimidin-4-amine], for which the IC50 under setting [1] was 10 to 100 nM.
With `Cc1oc2ncnc(NC3(C)CC3)c2c1C(=O)NC12CC3CC(CC(C3)C1)C2` [Example 270, N-(Adamantan-1-yl)-6-methyl-4-[(1-methylcyclopropyl)amino]furo[2,3-d]pyrimidine-5-carboxamide], under setting [1], the IC50 is less than 10 nM.
With `Cc1oc2ncnc(NC3(C)CC3)c2c1C(=O)N1CCc2sccc2C1` [Example 273, 6-Methyl-N-(1-methylcyclopropyl)-5-{4H,5H,6H,7H-thieno[3,2-c]pyridine-5-carbonyl}furo[2,3-d]pyrimidin-4-amine], the IC50 under setting [1] was 10 to 100 nM.
For `Cc1oc2ncnc(NC3(C)CC3)c2c1C(=O)N1CCC(C#N)(c2ccccc2)CC1` [Example 274, 1-{6-Methyl-4-[(1-methylcyclopropyl)amino]furo[2,3-d]pyrimidine-5-carbonyl}-4-phenylpiperidine-4-carbonitrile], the IC50 was in the range of 10 to 100 nM.
Consider `CCOCC1(CNC(=O)c2c(C)oc3ncnc(NC4(C)CC4)c23)CC1` [Example 275, N-{[1-(Ethoxymethyl)cyclopropyl]methyl}-6-methyl-4-[(1-methylcyclopropyl)amino]furo[2,3-d]pyrimidine-5-carboxamide], for which, under setting [1], the IC50 was 10 to 100 nM.
Still for that read-out and setting: then `Cc1oc2ncnc(NC3(C)CC3)c2c1C(=O)N1CC2C(C1)C2(C)C` (stereo not drawn) [Example 278, 5-{6,6-Dimethyl-3-azabicyclo[3.1.0]hexane-3-carbonyl}-6-methyl-(1-methylcyclopropyl)furo[2,3-d]pyrimidin-4-amine], with 10 to 100 nM.
On to `Cc1oc2ncnc(NC3(C)CC3)c2c1C(=O)N1C[C@@H]2[C@H](C1)[C@H]2c1ccc(F)cc1` [Example 279, 5-[(1R,5S,6S)-6-(4-Fluorophenyl)-3-azabicyclo[3.1.0]hexane-3-carbonyl]-6-methyl-N-(1-methylcyclopropyl)furo[2,3-d]pyrimidin-4-amine], for which the IC50 under setting [1] is 10 to 100 nM.
Consider `Cc1oc2ncnc(NC3(C)CC3)c2c1C(=O)NCc1cccc(F)n1` [Example 280, N-[(6-Fluoropyridin-2-yl)methyl]-6-methyl-4-[(1-methylcyclopropyl)amino]furo[2,3-d]pyrimidine-5-carboxamide], for which the IC50 under setting [1] was 10 to 100 nM.
Turning to `Cc1oc2ncnc(NC3(C)CC3)c2c1C(=O)NC1(c2ccc(F)cn2)CC1` [Example 281, N-[1-(5-Fluoropyridin-2-yl)cyclopropyl]-6-methyl-4-[(1-methylcyclopropyl)amino]furo[2,3-d]pyrimidine-5-carboxamide], the IC50 under setting [1] is 10 to 100 nM.
Same read-out and setting: then `Cc1oc2ncnc(NC3(C)CC3)c2c1C(=O)N1CCN(c2ccc(F)nc2)CC1` [Example 282, 5-[4-(6-Fluoropyridin-3-yl)piperazine-1-carbonyl]-6-methyl-N-(1-methylcyclopropyl)furo[2,3-d]pyrimidin-4-amine], with 10 to 100 nM.
Same read-out and setting: to `Cc1cc2c(cn1)CCN(C(=O)c1c(C)oc3ncnc(NC4(C)CC4)c13)C2` [Example 283, 6-Methyl-5-(7-methyl-1,2,3,4-tetrahydro-2,6-naphthyridine-2-carbonyl)-N-(1-methylcyclopropyl)furo[2,3-d]pyrimidin-4-amine] belongs 10 to 100 nM.
